Test systems include 786-0 renal; SK-MEL-28 melanoma; K-562 leukemia; SN12C renal; OVCAR-8 ovarian; ACHN renal; A549 NSCLC; HOP-62 NSCLC; PC-3 prostate; BT-549 breast.
Common to all, as to assay: NCI anticancer screen, dose series, 48 h

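Each compound was tested at five concentrations against cells in 96-well plates for 48 hours. GI50 marks 50% less growth. Definition used: TGI = concentration required for complete inhibition of growth.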 Bounds are passed on as bounds.

The record followed here is PubChem BioAssay (NCI).

As for `CC1CCP(=O)(c2ccccc2)CC1` (configuration not stated), the TGI with 786-0 renal, with SK-MEL-28 melanoma, in the test on K-562 leukemia, in the test with SN12C renal, with OVCAR-8 ovarian and in the test with ACHN renal was over 100 µM in each case. For the same compound, the TGI in the test with A549 NSCLC and in the test on HOP-62 NSCLC was over 100 µM throughout.

Turning to `O=C(O)c1cscc1Cc1cccs1`, the TGI with 786-0 renal, with PC-3 prostate, with SK-MEL-28 melanoma, in the test with K-562 leukemia, with BT-549 breast and with SN12C renal was over 100 µM throughout. Besides, the TGI in the test with OVCAR-8 ovarian, with ACHN renal, in the test with A549 NSCLC and with HOP-62 NSCLC was over 100 µM throughout.

For `O=[N+]([O-])c1ccc(/C=C(/c2ccc([N+](=O)[O-])o2)S(=O)(=O)c2ccccc2)o1`, the TGI was determined as 14.7 µM with 786-0 renal; 30.1 µM in the test with PC-3 prostate; 33.6 µM in the test with SK-MEL-28 melanoma; 10.2 µM in the test on K-562 leukemia; 36.2 µM with BT-549 breast; 18.3 µM with OVCAR-8 ovarian. The TGI in the test with ACHN renal was found to be 8.69 µM; in the test with A549 NSCLC it was 38.2 µM; in the test with HOP-62 NSCLC it was 38.3 µM.

As to `CC1(C)CC(=O)C(=[N+]=[N-])C(=O)C1`, the TGI in the test with 786-0 renal, with SK-MEL-28 melanoma, in the test on K-562 leukemia, with SN12C renal, in the test on ACHN renal and with A549 NSCLC was over 100 µM each time. Further, the TGI in the test on HOP-62 NSCLC was over 100 µM.

Consider `COc1cc(Cl)c2c3c(c(C(=O)c4ccccc4)oc13)CCC2`, for which the TGI in the test on 786-0 renal, in the test with SK-MEL-28 melanoma, with K-562 leukemia, in the test with SN12C renal, in the test with OVCAR-8 ovarian and in the test with ACHN renal was over 100 µM throughout. In addition, the TGI in the test with A549 NSCLC and with HOP-62 NSCLC was over 100 µM in each case.

As for `COc1cc(NCC2COc3c(ccc(OC)c3OC)C2=O)c([N+](=O)[O-])cc1OC` (configuration not stated), the TGI in the test on 786-0 renal, in the test on PC-3 prostate, with SK-MEL-28 melanoma, in the test on K-562 leukemia, with SN12C renal and in the test with OVCAR-8 ovarian was over 100 µM throughout. For the same compound, the TGI with ACHN renal, with A549 NSCLC and in the test with HOP-62 NSCLC was over 100 µM throughout.

Regarding `COC(=O)OCc1ccc2c(c1)C(=O)c1c-2n(CCCBr)c(=O)c2cc([N+](=O)[O-])ccc12`, the GI50 in the test with 786-0 renal is 31.7 µM; in the test with PC-3 prostate, over 100 µM; in the test on SK-MEL-28 melanoma, over 100 µM; in the test with BT-549 breast it was 44.9 µM; with SN12C renal it was over 100 µM; in the test with OVCAR-8 ovarian, over 100 µM. Besides, the figures for the GI50 in the test on ACHN renal, with A549 NSCLC and with HOP-62 NSCLC were 24.2 µM, over 100 µM and 27.7 µM, respectively. The TGI was 92 µM with 786-0 renal; over 100 µM with PC-3 prostate; over 100 µM in the test with SK-MEL-28 melanoma; over 100 µM in the test with BT-549 breast; over 100 µM in the test with SN12C renal; over 100 µM with OVCAR-8 ovarian. For the same compound, the results for the TGI with ACHN renal, in the test with A549 NSCLC and in the test on HOP-62 NSCLC were 93.8 µM, over 100 µM and over 100 µM, respectively.

With `Cc1ccc(NC(=O)C2C(=O)N(c3ccc(C)c(C)c3)C(=O)/C2=N\NC(N)=S)cc1C` (configuration not stated), the TGI in the test on 786-0 renal, in the test on SK-MEL-28 melanoma, in the test on K-562 leukemia, with SN12C renal, in the test with ACHN renal and with A549 NSCLC was over 100 µM throughout.

`Cn1c2ccccc2c(=O)c2c([N+](=O)[O-])ccc(NCCN)c21`: the TGI was determined as 20.6 µM with 786-0 renal; 29.2 µM in the test on SK-MEL-28 melanoma; 17.2 µM with SN12C renal; 24.5 µM with OVCAR-8 ovarian; 19.7 µM in the test on ACHN renal; 25.5 µM in the test with A549 NSCLC. In addition, in the test with HOP-62 NSCLC, the TGI worked out at 30.7 µM.

Regarding `BrC1=CC=C2NCCCCCCN=C3C=CC(Br)=CC=C3NCCCCCCN=C2C=C1`, the TGI in the test on 786-0 renal, in the test on SK-MEL-28 melanoma, in the test on K-562 leukemia, with SN12C renal, with OVCAR-8 ovarian and in the test with ACHN renal was over 25.5 µM each time. In addition, the TGI in the test with A549 NSCLC and in the test on HOP-62 NSCLC was over 25.5 µM in each case.

With `CCCCCC(O)(CCCCC)CCCCCCCCC1=C(O)c2[nH]c(=O)ccc2C(=O)C1=O`, the TGI with 786-0 renal turned out to be 20.8 µM; with SK-MEL-28 melanoma, 20.7 µM; in the test with K-562 leukemia it was 26.7 µM; in the test on SN12C renal, 21 µM; with OVCAR-8 ovarian it was 23.1 µM; in the test with ACHN renal, 19.2 µM. Moreover, the TGI in the test with A549 NSCLC came to 26.3 µM; in the test with HOP-62 NSCLC it was 24.9 µM.

Turning to `COC(=O)/C(=C/c1ccc(OC)cc1)NC(=O)c1ccccc1`, the TGI with 786-0 renal, in the test with SK-MEL-28 melanoma, in the test with K-562 leukemia, with SN12C renal, with OVCAR-8 ovarian and with ACHN renal was over 100 µM each time. In the test with A549 NSCLC, this compound returned a TGI of over 100 µM.

With `CCCCN(CCCC)C(=O)C(=O)C(C)C(=O)CC` (configuration not stated), the TGI with 786-0 renal, in the test on SK-MEL-28 melanoma, with K-562 leukemia, in the test with SN12C renal, with OVCAR-8 ovarian and in the test on ACHN renal was over 100 µM in each case. Besides, the TGI in the test on A549 NSCLC and in the test on HOP-62 NSCLC was over 100 µM each time.

As to `O=[N+]([O-])[O-].O=[N+]([O-])[O-].[Au].[Au].c1ccc([P-]c2ccccc2)cc1.c1ccc([P-]c2ccccc2)cc1`, the GI50 in the test with 786-0 renal was 19.2 µM; with SK-MEL-28 melanoma it was 29.3 µM; in the test with K-562 leukemia it was 23.6 µM; with OVCAR-8 ovarian, 35.3 µM; with ACHN renal it was 17 µM; with A549 NSCLC, 84 µM. Also, in the test with HOP-62 NSCLC, the GI50 is over 100 µM. The TGI is 58.7 µM with 786-0 renal; 75.6 µM in the test on SK-MEL-28 melanoma; over 100 µM in the test on K-562 leukemia; over 100 µM with OVCAR-8 ovarian; 33.9 µM with ACHN renal; over 100 µM in the test with A549 NSCLC. Moreover, in the test on HOP-62 NSCLC, the TGI was over 100 µM.
